Entries after “also recorded” stand apart in the source; their conditions may differ. Like-named read-outs stand apart in the source and are kept apart here.
Assays:
PAMPA BBB permeability = type: in vitro ADME; details: −logPe, pH 7.4, 25 °C, 4 h, lipid BBB-1
Protocol: The intestinal and BBB permeabilities were measured by PAMPA Permeability Analyzer (pION Inc.) at the following settings: wavelength analysed 250–500 nm, pH 7.4, temperature 25 °C, permeation time 4 h, lipid formulation GIT-0 and stirring 60 rpm and BBB-1 and no stirring, respectively. […]. Carbamazepine, ketoprofen, and ranitidine were used as controls for intestinal permeability. Theophylline, progesterone, and propranolol were used as controls for BBB permeability.

NEURO-2A cells [1] = test: Neurotoxicity test, MTT-dye reduction assay; type: cell-based; details: for IC50: Mus musculus, N2a, 72-h incubation, MTT, read-out: IC50 Neuro2A; for Neurotoxicity on Neuro-2A cells (in words): concentrations up to 100 µM
Protocol: Murine neuroblastoma NEURO-2 A cells (German collection DSMZ, Braunschweig, Germany) were cultivated under standard conditions: complete medium (90% DMEM, 10% heat-inactivated FBS, and 1 × non-essential amino acids); 37 °C and5% CO2 in fully humidified atmosphere. The cell line was kept in the logarithmic growth phase by splitting 1:4 once a week using trypsin/EDTA. About 30% of the cells grow like neuronal cells. For the experimental evaluation of the cytotoxicity NEURO-2A, cells were plated in 96-well flat-bottomed cell culture plates at the recommended density of 1 × 10^6 cells/25 cm^2. After 24 h, the cells were treated with various concentrations of the investigational compounds and after 72-h incubation, a MTT-dye reduction assay was performed. Briefly, at the end of incubation, a MTT stock solution (10 mg/ml in PBS) was added (10 µL/well). Plates were further incubated at 37 °C for 4 h. Next, the formazan crystals were dissolved by the addition of 110 µL/well 5% formic acid in 2-propanol (v/v). Absorption was measured at 580 nm wavelength on an automated ELISA reader Labexim LMR1. At least six wells per concentration were used, and data were processed using the GraphPad Prism 5.0 software 2.

[2] = target: T1, AChE from Electrophorus electricus (eeAChE) (Electrophorus electricus, UniProt O42275); test: biochemical; type: binding
T1 construct: purchased Sigma Aldrich
Protocol: The ITC measurements[40] were performed on NanoITC tool (TA Instruments, Lindon, UT) with 190 µL sample cell and 50 µL syringe. […] The tested compounds were prepared in 5 mM stock solutions in ethanol and diluted to 0.5 mM in 50 mM Tris-HCl pH 7.4 buffer. All samples were degassed prior the experiments. The AChE solution was placed into the sample cell and titrated by the tested compounds in 25 steps of 2 µL at 5 min intervals at 25 °C. The blank samples (buffer lacking AChE) were titrated at the same conditions. The corresponding Kd values were calculated using NanoAnalyze software (TA Instruments, Lindon, UT).

[3] = PAMPA GIT (intestinal) permeability; type: in vitro ADME; details: −logPe, pH 6.2, 25 °C, 4 h, lipid GIT-0
[4] = cited from earlier work
NEURO-2A cells [5] = details: read-out: IC50 Neuro2A; cited from earlier work

T1 sequence (O42275 24-633): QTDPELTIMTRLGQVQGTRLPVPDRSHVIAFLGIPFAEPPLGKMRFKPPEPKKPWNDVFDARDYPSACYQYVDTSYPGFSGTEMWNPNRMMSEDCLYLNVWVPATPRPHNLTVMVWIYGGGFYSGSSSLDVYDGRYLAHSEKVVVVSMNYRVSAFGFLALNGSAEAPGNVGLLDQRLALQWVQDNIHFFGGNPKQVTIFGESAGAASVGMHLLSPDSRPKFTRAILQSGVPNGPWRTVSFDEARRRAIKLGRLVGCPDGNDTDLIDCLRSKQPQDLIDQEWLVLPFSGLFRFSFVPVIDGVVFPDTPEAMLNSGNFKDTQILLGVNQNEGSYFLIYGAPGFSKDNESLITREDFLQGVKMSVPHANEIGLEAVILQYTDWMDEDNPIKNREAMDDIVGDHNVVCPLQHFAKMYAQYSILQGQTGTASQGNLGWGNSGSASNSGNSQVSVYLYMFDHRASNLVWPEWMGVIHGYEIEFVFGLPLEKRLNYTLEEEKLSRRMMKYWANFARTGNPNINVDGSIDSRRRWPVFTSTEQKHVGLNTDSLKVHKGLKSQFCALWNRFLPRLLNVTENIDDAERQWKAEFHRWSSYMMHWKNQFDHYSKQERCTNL

## Cn1cc(CNCCc2cccc3cccnc23)c(-c2cccnc2)n1 [Compound 7, N-((1-methyl-3-(pyridin-3-yl)-1H-pyrazol-4-yl)methyl)-2-(quinolin-8-yl)ethanamine]
PAMPA BBB permeability
  pPe pH 7.4 BBB PAMPA: 4.267
NEURO-2A cells [1]
  IC50: > 100 µM
  Neurotoxicity on Neuro-2A cells (in words): non-toxic
[2]; ITC, read-out: Kd
  Kd: 577 nM
[3]
  pPe pH 6.2 GIT PAMPA: 4.246

## O=C(Cn1c(=O)[nH]c(=O)c2ccccc21)NCCc1cccc(F)c1 [Compound 9, 2–(2,4-dioxoquinazolin-1-yl)-N-[2-(3-fluorophenyl)ethyl]acetamide]
PAMPA BBB permeability
  pPe pH 7.4 BBB PAMPA: 4.628
NEURO-2A cells [1]
  IC50: > 100 µM
[2]; 25 °C, pH 7.4
  Kd ITC: does not interact; also recorded: Non-binder
[3]
  pPe pH 6.2 GIT PAMPA: 4.361

## COc1ccc(CC(=O)N[C@@H](CO)[C@@H](O)c2ccc(N)cc2)cc1 [Compound 8, N-((1S,2S)-1-(4-aminophenyl)-1,3-dihydroxypropan-2-yl)-2-(4-methoxyphenyl)acetamide]
PAMPA BBB permeability
  pPe pH 7.4 BBB PAMPA: 4.731
NEURO-2A cells [1]
  IC50: > 100 µM
  Neurotoxicity on Neuro-2A cells (in words): non-toxic
[2]; ITC, read-out: Kd
  Kd: 682 nM
[3]
  pPe pH 6.2 GIT PAMPA: 4.469

## Cn1cc(CNC(=O)N2CCC(C(N)=O)CC2)c(-c2ccccc2)n1 [Compound 6, N^1-((1-methyl-3-phenyl-1H-pyrazol-4-yl)methyl)piperidine-1,4-dicarboxamide]
PAMPA BBB permeability
  pPe pH 7.4 BBB PAMPA: 5.008
NEURO-2A cells [1]
  IC50: > 100 µM
  Neurotoxicity on Neuro-2A cells (in words): non-toxic
[2]; ITC, read-out: Kd
  Kd: 613 nM
[3]
  pPe pH 6.2 GIT PAMPA: 4.428

## O=C(CCn1ccc2ccccc21)NCCCn1cnc2ccccc21 [Compound 2, N-[3-(benzimidazol-1-yl)propyl]-3-indol-1-yl-propanamide]
PAMPA BBB permeability
  pPe pH 7.4 BBB PAMPA: 4.452
NEURO-2A cells [1]
  IC50: > 100 µM
  Neurotoxicity on Neuro-2A cells (in words): absence of toxicity; also recorded: non-toxic
[2]; ITC, read-out: Kd
  Kd: 618 nM
[3]
  pPe pH 6.2 GIT PAMPA: 4.339

## COc1ccc2c3c1O[C@H]1C[C@@H](O)C=C[C@@]31CCN(C)C2 [GAL, galantamine]
[4]
  CL: 5.60[47] mL/min/kg
  VD^ss: 2.30[47] L/kg
  t1/2: 5.30[47] h
NEURO-2A cells [5]
  IC50: > 50 µM

## O=C(Cn1ccc2ccccc21)NCCOc1cccc2cccnc12 [Compound 5, 2-indol-1-yl-N-[2-(8-quinolyloxy)ethyl]acetamide]
PAMPA BBB permeability
  pPe pH 7.4 BBB PAMPA: 4.146
NEURO-2A cells [1]
  IC50: > 100 µM
  Neurotoxicity on Neuro-2A cells (in words): non-toxic
[2]; ITC, read-out: Kd
  Kd: 517 nM
[3]
  pPe pH 6.2 GIT PAMPA: 4.230

## CN(Cc1ccccc1-c1ccccc1)C(=O)CCn1ccccc1=O [Compound 1, N-Methyl-3-(2-oxo-1-pyridyl)-N-[(2-phenylphenyl)methyl]propanamide]
PAMPA BBB permeability
  pPe pH 7.4 BBB PAMPA: 4.540
NEURO-2A cells [1]
  IC50: > 100 µM
  Neurotoxicity on Neuro-2A cells (in words): non-toxic
[2]; ITC, read-out: Kd
  Kd: 525 nM
[3]
  pPe pH 6.2 GIT PAMPA: 4.268

## CC(C)n1cc(CC(=O)NCCc2ccc(O)cc2)c2ccccc21 [Compound 10, N-[2-(4-hydroxyphenyl)ethyl]-2-(1-isopropylindol-3-yl)acetamide]
PAMPA BBB permeability
  pPe pH 7.4 BBB PAMPA: 4.311
NEURO-2A cells [1]
  IC50: 53 µM
  Neurotoxicity on Neuro-2A cells (in words): toxic
[2]; 25 °C, pH 7.4, read-out: Kd ITC
  Kd: 735 nM
[3]
  pPe pH 6.2 GIT PAMPA: 4.202

## O=C(CCn1nc(-c2ccccc2)ccc1=O)NCCc1ccccc1 [Compound 3, 3-(6-Oxo-3-phenylpyridazin-1(6H)-yl)-N-phenethylpropanamide]
PAMPA BBB permeability
  pPe pH 7.4 BBB PAMPA: 4.294
NEURO-2A cells [1]
  IC50: > 100 µM
  Neurotoxicity on Neuro-2A cells (in words): non-toxic
[2]; ITC, read-out: Kd
  Kd: 555 nM
[3]
  pPe pH 6.2 GIT PAMPA: 4.207

## Cn1cc(CNCc2ccc3ncccc3c2)c(-c2ccccc2F)n1 [Compound 4, 1-[3-(2-fluorophenyl)-1-methyl-pyrazol-4-yl]-N-(6-quinolylmethyl) methanamine]
PAMPA BBB permeability
  pPe pH 7.4 BBB PAMPA: 4.258
NEURO-2A cells [1]
  IC50: 35 µM
[2]; ITC, read-out: Kd
  Kd: 618 nM
[3]
  pPe pH 6.2 GIT PAMPA: 4.251

Reference: publication PMC6010092, “Novel hits for acetylcholinesterase inhibition derived by docking-based screening on ZINC database” (Journal of Enzyme Inhibition and Medicinal Chemistry, 2018)
